{"source": "patent US20240180153A1", "about": "“METHODS FOR MANAGING DISEASES IN CUT FLOWERS” (Niacet Corporation, priority 2022, published 2024)", "key": {"[1]": {"system": "all four pathogens (B. cinerea, M. fructicola, A. alternata, C. siamense)", "assay": "In-vitro mycelium growth inhibition, statements pooled over all four pathogens", "assay_type": "cell-based", "experimental": "(§1) A 10% buffered (pH 6.0) stock solution in autoclaved de-ionized water was used to prepare working calcium propionate solutions. Initially, five concentrations of 0, 1, 5, 25, and 100 ppm were screened for determining the effect of calcium propionate on fungal mycelia. Higher concentrations of 300, 900, 2700, and 8100 ppm were also tested in mycelium growth inhibition assays to determine EC50 values for isolates sensitive and resistant to FRAC codes 1, 2, 7, 9, 11, 12, 13, and 17 (i.e., benzimidazoles, quinone outside inhibitors, dicarboxamides, succinate dehydrogenases, phenylpyrroles, demethylation inhibitor fungicides, and anilinopyrimidines respectively).\nTo prepare different concentrations, calculated amount of stock solution was mixed in autoclaved (121 C for 20 mins) potato dextrose agar (PDA) after the media cooled down to appropriate temperature. Amended media with different CaP concentrations was poured in to 15×100 mm petri dishes (VWR International, LLC., Radnor, PA), and left to solidify. For mycelium growth, 5 mm plugs were obtained from the edges of freshly grown seven-day old cultures from all 24 isolates of different fungal genera including Alternaria sp., Botrytis sp., Colletotrichum sp., and Monilinia sp. (Table 1). Two culture plugs of each isolate were placed near opposite edges of individual CaP amended PDA media plates. The media plates with no CaP (0 ppm) served as control treatment. Inoculated plates were then incubated at 25° C. in dark for 7-10 days. Mycelium growth diameter was measured using a vernier caliper just before the mycelium growth of two colonies in the control media plate overlapped. […] Mycelium inhibition rates were calculated and EC50 values were determined. Additionally, the fungistatic activity of calcium propionate was determined at 8000 mg/L (0.8%; pH 6.0) concentration, buffered at pH 6 with acetic acid. […] Mycelium growth was recorded every 24 h using a vernier caliper until fungal mycelia in control treatments reached the 90 mm in diameter petri dish rim."}, "[2]": {"system": "M. fructicola", "assay": "In-vitro mycelium growth inhibition on CaP-amended PDA", "assay_type": "cell-based, Monilinia fructicola", "conditions": "six isolates, pH 6.0, 25° C. dark", "experimental": "as §1\n(§2) To prepare different concentrations, calculated amount of stock solution was mixed in autoclaved (121 C for 20 mins) potato dextrose agar (PDA) after the media cooled down to appropriate temperature. […] Mycelium growth diameter was measured using a vernier caliper just before the mycelium growth of two colonies in the control media plate overlapped. […] Mycelium inhibition rates were calculated and EC50 values were determined. Additionally, the fungistatic activity of calcium propionate was determined at 8000 mg/L (0.8%; pH 6.0) concentration, buffered at pH 6 with acetic acid. […] Mycelium growth was recorded every 24 h using a vernier caliper until fungal mycelia in control treatments reached the 90 mm in diameter petri dish rim."}, "[3]": {"system": "Botrytis cinerea isolate S4GBR4O", "assay": "Botrytis blight severity on cut roses after submerging flower-head", "assay_type": "in vivo", "experimental": "(§3) Calcium propionate concentrations of 0.1%, 0.2%, 0.3%, 0.5%, 0.75%, 1% (pH 6.0), were prepared and tested against Botrytis blight on cut roses. Treatments were applied by submerging flower-head of 15 sec in the solutions of the treatments and gently moving the flowers up and down to allow the petals to open and help the product get in touch with the most internal petals. Then, the flowers were placed vertically in open PVC boxes over heavy-duty thermoformed trays (Greenhouse Megastore, Danville, IL) containing 3 L of water. The boxes and trays were placed inside open humid chambers for 24 h, then the flowers were sprayed with a Botrytis cinerea spore suspension at 10^5 spores/ml from the previously characterized isolate S4GBR4O (Muñoz et al., 2019). The humid chambers were closed, and data collection of disease severity was taken 3, 5, and 7 days after the inoculation. Relative humidity in the humid chambers was maintained in a range of 97-100% which was verified using a psychrometer (RH300, Extech Instruments, Nashua, NH, US). Observational data on phytotoxicity symptoms were also collected. Additionally, an inoculated control, Pydiflumethophen+Fludioxonil (sold under the trademark MIRAVIS™ PRIME; Syngenta, Raleigh, NC), and a non-inoculated treatment were included in the evaluation. The experiment with CaP treatments of 0.5%, 0.75%, and 1% (pH 6.0) were conducted only once due to phytotoxicity issues. All lower dose treatments were performed twice."}, "[4]": {"system": "petunia flowers", "assay": "Phytotoxicity on harvested petunia flowers after spray application", "assay_type": "in vivo, Petuniaxhybrida 'Dreams burgundy picotee'", "experimental": "(§4) Calcium propionate concentrations were prepared by adding appropriate amounts in de-ionized water and tested in four separate experiments. Spray applications at 1.25%, 2.5%, and 5% (pH 7.7 and buffered with acetic acid to pH 6.5) (first experiment) and 0.5%, 0.75%, and 1% buffered with acetic acid to pH 6.5 (second experiment) were made on harvested open petunia flowers. Separately, spray applications at 0.1%, 0.2%, 0.3%, (third experiment) 0.5%, 0.75%, and 1% (fourth experiment) buffered with acetic acid to pH 6.5 were made on harvested open petunia flowers. Approximately 24 hours after spray applications, the flowers were arranged in humid chambers maintaining relative humidity of 98-100% and inoculated by spraying spore suspension (10^4 spores/ml) of B. cinerea isolate PDRK3 (Bennett et al. 2019). Fungicide applications and spore suspensions were misted onto flowers until runoff to completely cover the flower using a 4 oz clear PET plastic bullet bottle with white mist sprayer (The Cary Company, Addison, IL). The petunia flowers were evaluated 72 h after inoculation to observe botrytis blight severity and phytotoxicity using ratings from 0 to 8 scale based on the area of infected corolla (0=no infection; 8=complete necrosis), modified from Bennett (2019). Pydiflumethophen+fludioxonil (sold under the trademark MIRAVIS™ PRIME; Syngenta, Raleigh, NC) was used as a commercial fungicide control along with a non-inoculated and an inoculated control. Ten flowers were evaluated per treatment and the entire experiment was repeated twice."}, "[5]": {"system": "A. alternata", "assay": "In-vitro mycelium growth inhibition on CaP-amended PDA", "assay_type": "cell-based, Alternaria alternata", "experimental": "as §1, §2"}, "[6]": {"system": "cut roses", "assay": "Phytotoxicity on cut roses after submerging flower-head", "assay_type": "in vivo, cultivar Orange Crush", "experimental": "as §3"}, "[7]": {"system": "C. siamense", "assay": "In-vitro mycelium growth inhibition on CaP-amended PDA", "assay_type": "cell-based, Colletotrichum siamense", "experimental": "as §1, §2"}, "[8]": {"system": "B. cinerea isolate PDRK3", "assay": "Botrytis blight severity on harvested petunia flowers after spray application", "assay_type": "in vivo, Botrytis cinerea", "experimental": "as §4"}, "[9]": {"system": "B. cinerea", "assay": "In-vitro mycelium growth inhibition on CaP-amended PDA", "assay_type": "cell-based, Botrytis cinerea", "conditions": "six isolates, pH 6.0, 25° C. dark", "experimental": "as §1, §2"}, "[10]": {"conditions": "8000 ppm (0.8%; pH 6.0), after 2-4 days, growth rate reaching untreated control"}, "[11]": {"conditions": "six isolates, amended PDA, pH 6.0, 25° C. dark"}}, "data": [{"smiles": "CCC(=O)[O-].CCC(=O)[O-].[Ca+2]", "note": "[CaP, calcium propionate]", "values": [{"measurement": "mycelium growth inhibition", "setting": "[1]; 8000 ppm (0.8%; pH 6.0), after 2-4 days of incubation", "value": "~100", "unit": "%"}, {"measurement": "maximum inhibition of fungal mycelium growth", "setting": "[1]; CaP 1, 5, 25, and 100 mg/L, preliminary experiments", "value": "below 20%"}, {"measurement": "mean EC50 of fungicide-sensitive versus fungicide-resistant isolates", "setting": "[1]; isolates sensitive vs resistant to commonly used FRAC groups", "value": "not significantly different"}, {"measurement": "mean EC50 mycelium growth", "setting": "[2]", "value": 618.25, "unit": "µg/mL"}, {"measurement": "botrytis blight severity, difference to inoculated control", "setting": "[3]; first rose experiment, 0.5%, 0.75%, and 1% CaP (pH 6.0)", "value": "No statistical differences"}, {"measurement": "efficacy against botrytis blight compared to grower standard", "setting": "[3]; second rose experiment, 0.1% (pH 6.0) CaP", "value": "as effective as the grower standard Miravis Prime"}, {"measurement": "efficacy against botrytis blight compared to 0.3% CaP", "setting": "[3]; second rose experiment, 0.1% CaP (pH 6.0)", "value": "significantly higher efficacy"}, {"measurement": "phytotoxicity", "setting": "[4]; experiment three, 0.1% (pH 6.5)", "value": "barely noticeable"}, {"measurement": "phytotoxicity, difference to untreated control", "setting": "[4]; experiment three, 0.1% CaP (pH 6.5)", "value": "no significant difference"}, {"measurement": "phytotoxicity", "setting": "[4]; experiment three, lower concentrations 0.1%-0.3% (pH 6.5)", "value": "very little to no phytotoxicity"}, {"measurement": "phytotoxicity", "setting": "[4]; experiment two, 0.5% (pH 6.5)", "value": "barely noticeable"}, {"measurement": "phytotoxicity", "setting": "[4]; experiment two, 0.75% and 1% (pH 6.5)", "value": "noticeable phytotoxicity"}, {"measurement": "phytotoxicity (bleaching of petunia flower tissue)", "setting": "[4]; first experiment, 1.25%, 2.5%, and 5% CaP (pH 6.5 and 7.7)", "value": "Evidence of phytotoxicity was observed"}, {"measurement": "phytotoxicity (bleaching of petunia flower tissue)", "setting": "[4]; fourth experiment, 0.5%, 0.75%, and 1% CaP (pH 6.5), increased with increasing concentrations", "value": "Evidence of phytotoxicity was observed"}, {"measurement": "mycelium growth recovery after initial inhibition", "setting": "[5]; [10]", "value": "recovered quickly"}, {"measurement": "mean EC50 mycelium growth", "setting": "[5]; [11]", "value": 1354.87, "unit": "µg/mL"}, {"measurement": "phytotoxicity", "setting": "[6]; 0.1% CaP (pH 6.0)", "value": "no to barely noticeable phytotoxicity"}, {"measurement": "phytotoxicity symptoms", "setting": "[6]; 0.3% and 0.2% CaP (pH 6.0)", "value": "minor symptoms of phytotoxicity"}, {"measurement": "size of phytotoxicity spots", "setting": "[6]; 0.3% and 0.2% CaP (pH 6.0)", "value": "1-2 mm"}, {"measurement": "phytotoxicity symptoms", "setting": "[6]; 0.5% CaP (pH 6.0) and higher, rounded areas in outermost petals, discolored edges", "value": "phytotoxicity symptoms were observed"}, {"measurement": "mycelium growth recovery after initial inhibition", "setting": "[7]; [10]", "value": "recovered quickly"}, {"measurement": "mean EC50 mycelium growth", "setting": "[7]; [11]", "value": 1310.34, "unit": "µg/mL"}, {"measurement": "control efficacy with increase in concentration", "setting": "[8]; 0.75% to 1% (fourth experiment) and 0.1% to 0.3% (third experiment), pH 6.5", "value": "did not correspond to an increase in control efficacy"}, {"measurement": "disease severity", "setting": "[8]; experiment three, all CaP treatments 0.1%, 0.2%, 0.3% (pH 6.5)", "value": "reduced disease severity"}, {"measurement": "botrytis blight control compared to the 0.5% treatment", "setting": "[8]; experiment two, 0.75% and 1.0% CaP (pH 6.5)", "value": "significantly better control"}, {"measurement": "disease severity", "setting": "[8]; experiment two, all CaP treatments 0.5%, 0.75%, 1% (pH 6.5)", "value": "reduced disease severity"}, {"measurement": "botrytis blight control, lower pH vs higher pH treatment", "setting": "[8]; first experiment, 1.25% CaP, pH 6.5 compared to pH 7.7", "value": "significantly better control"}, {"measurement": "control efficacy with increase in concentration", "setting": "[8]; first experiment, increase from 1.25% to 5%", "value": "did not correspond to an increase in control efficacy"}, {"measurement": "botrytis blight severity vs inoculated control", "setting": "[8]; first experiment, spray 1.25%, 2.5%, and 5% (pH 6.5 and 7.7), 72 h after inoculation", "value": "reduced botrytis blight compared to the inoculated control"}, {"measurement": "botrytis blight severity vs inoculated control", "setting": "[8]; third and fourth experiments, all CaP concentrations 0.1%-1% at pH 6.5", "value": "reduced botrytis blight compared to the inoculated control"}, {"measurement": "mean EC50 mycelium growth", "setting": "[9]", "value": 527.77, "unit": "µg/mL"}]}]}
